One may read the IC50 as the concentration that inhibits the measured activity by half.

The structures appear in SMILES notation. Residues, ends and D or L forms follow the SMILES beside them. *: point of attachment. X9 = C[C@@H](COC(=O)N(C)Cc1ccc(-c2[nH]c3cc(F)cc4c3c2CCNC4=O)cc1)S*; X16 = C[C@H](COC(=O)N1CCC[C@]1(C)c1nc2c(C(N)=O)cccc2[nH]1)S*; X19 = CN(Cc1ccc(-c2[nH]c3cc(F)cc4c3c2CCNC4=O)cc1)C(=O)OCCS*; X2 = NC(=O)c1cccc2[nH]c(-c3ccc(COC(=O)OCCS*)cc3)nc12

Our source for the IC50 values is patent publication US12427157B2, “Methods for treatment of diseases involving acidic or hypoxic diseased tissues” (Cybrexa 1, Inc., priority 2018, dated 2025).

For the experiment, the target named is PARP (Homo sapiens, UniProt P09874). Description: Enzymatic Assay 2: HT Universal Chemiluminescent PARP Assay of cleaved compounds.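 Further: PARP reaction with activated DNA run 1 h at room temperature, product detected via streptavidin-HRP and luminescence endpoint reading on a plate reader.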 Particulars: read-out: IC50 Enzymatic Assay 2; Examples cleaved per Example A (crude cleavage solution); R^8H starting materials as such.
Sequence of PARP (P09874 whole entry): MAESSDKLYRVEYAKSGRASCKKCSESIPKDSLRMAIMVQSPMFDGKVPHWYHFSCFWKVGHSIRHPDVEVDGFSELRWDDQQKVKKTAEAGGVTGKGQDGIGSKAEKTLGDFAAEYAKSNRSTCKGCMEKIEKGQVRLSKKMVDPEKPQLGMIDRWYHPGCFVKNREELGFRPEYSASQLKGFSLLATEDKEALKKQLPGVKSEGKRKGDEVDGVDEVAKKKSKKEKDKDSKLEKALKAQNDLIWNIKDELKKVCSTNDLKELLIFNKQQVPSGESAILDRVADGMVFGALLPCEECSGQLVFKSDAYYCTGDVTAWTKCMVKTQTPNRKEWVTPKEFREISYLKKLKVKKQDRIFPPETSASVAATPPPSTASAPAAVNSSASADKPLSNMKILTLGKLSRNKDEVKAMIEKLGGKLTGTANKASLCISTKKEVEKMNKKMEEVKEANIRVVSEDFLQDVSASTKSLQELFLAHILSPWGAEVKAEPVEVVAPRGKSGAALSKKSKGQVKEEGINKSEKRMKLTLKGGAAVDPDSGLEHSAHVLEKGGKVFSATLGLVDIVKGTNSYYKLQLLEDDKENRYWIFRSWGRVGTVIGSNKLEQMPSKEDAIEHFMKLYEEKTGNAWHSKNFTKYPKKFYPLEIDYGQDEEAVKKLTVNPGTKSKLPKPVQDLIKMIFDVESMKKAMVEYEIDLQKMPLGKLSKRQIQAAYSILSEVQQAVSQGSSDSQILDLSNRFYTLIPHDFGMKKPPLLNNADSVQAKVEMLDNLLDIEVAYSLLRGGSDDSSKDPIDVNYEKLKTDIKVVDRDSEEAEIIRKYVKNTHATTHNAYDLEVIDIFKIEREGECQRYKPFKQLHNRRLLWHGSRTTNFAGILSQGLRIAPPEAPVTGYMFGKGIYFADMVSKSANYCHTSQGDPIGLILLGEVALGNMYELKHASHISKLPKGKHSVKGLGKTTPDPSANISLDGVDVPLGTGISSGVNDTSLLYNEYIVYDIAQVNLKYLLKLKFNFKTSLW
On to `CC[C@H](C)[C@H](NC(=O)[C@@H]1CCCN1C(=O)[C@H](CC(N)=O)NC(=O)[C@H](CCC(N)=O)NC(=O)[C@H](CCC(=O)O)NC(=O)[C@H](C)N)C(=O)N[C@@H](Cc1ccc(O)cc1)C(=O)N[C@@H](Cc1c[nH]c2ccccc12)C(=O)N[C@@H](C)C(=O)N[C@@H](CCCNC(=N)N)C(=O)N[C@@H](Cc1ccc(O)cc1)C(=O)N[C@@H](C)C(=O)N[C@@H](CC(=O)O)C(=O)N[C@@H](Cc1c[nH]c2ccccc12)C(=O)N[C@@H](CC(C)C)C(=O)N[C@@H](Cc1ccccc1)C(=O)N[C@H](C(=O)N[C@H](C(=O)N1CCC[C@H]1C(=O)N[C@@H](CC(C)C)C(=O)N[C@@H](CC(C)C)C(=O)N[C@@H](CC(C)C)C(=O)N[C@@H](CC(C)C)C(=O)N[C@@H](CC(=O)O)C(=O)N[C@@H](CC(C)C)C(=O)N[C@@H](C)C(=O)N[C@@H](CC(C)C)C(=O)N[C@@H](CC(C)C)C(=O)N[C@H](C(=O)N[C@@H](CC(=O)O)C(=O)N[C@@H](C)C(=O)N[C@@H](CC(=O)O)C(=O)N[C@@H](CCC(=O)O)C(=O)N[C@@H](CSSCCOC(=O)OCc1ccc(-c2nc3c(C(N)=O)cccc3[nH]2)cc1)C(=O)NCC(=O)O)C(C)C)[C@@H](C)O)[C@@H](C)O` [Example 2] (H-AEQNPIYWARYADWLFTTPLLLLDLALLVDADEC(X2)G-OH; N-terminus and C-terminus assumed), for which the half-inhibitory concentration (IC50) is 9.52 nM. For the molecule `CC[C@H](C)[C@H](NC(=O)[C@@H]1CCCN1C(=O)[C@H](CC(N)=O)NC(=O)[C@H](CCC(N)=O)NC(=O)[C@H](CCC(=O)O)NC(=O)[C@H](C)N)C(=O)N[C@@H](Cc1ccc(O)cc1)C(=O)N[C@@H](Cc1c[nH]c2ccccc12)C(=O)N[C@@H](C)C(=O)N[C@@H](CCCNC(=N)N)C(=O)N[C@@H](Cc1ccc(O)cc1)C(=O)N[C@@H](C)C(=O)N[C@@H](CC(=O)O)C(=O)N[C@@H](Cc1c[nH]c2ccccc12)C(=O)N[C@@H](CC(C)C)C(=O)N[C@@H](Cc1ccccc1)C(=O)N[C@H](C(=O)N[C@H](C(=O)N1CCC[C@H]1C(=O)N[C@@H](CC(C)C)C(=O)N[C@@H](CC(C)C)C(=O)N[C@@H](CC(C)C)C(=O)N[C@@H](CC(C)C)C(=O)N[C@@H](CC(=O)O)C(=O)N[C@@H](CC(C)C)C(=O)N[C@@H](C)C(=O)N[C@@H](CC(C)C)C(=O)N[C@@H](CC(C)C)C(=O)N[C@H](C(=O)N[C@@H](CC(=O)O)C(=O)N[C@@H](C)C(=O)N[C@@H](CC(=O)O)C(=O)N[C@@H](CCC(=O)O)C(=O)N[C@@H](CSS[C@H](C)COC(=O)N1CCC[C@]1(C)c1nc2c(C(N)=O)cccc2[nH]1)C(=O)NCC(=O)O)C(C)C)[C@@H](C)O)[C@@H](C)O` [Example 54] (H-AEQNPIYWARYADWLFTTPLLLLDLALLVDADEC(X16)G-OH; N-terminus and C-terminus assumed), the IC50 worked out at 0.6 nM. With `CC(C)C[C@H](NC(=O)[C@H](Cc1ccc(O)cc1)NC(=O)[C@H](C)NC(=O)[C@H](CCCNC(=N)N)NC(=O)[C@H](Cc1c[nH]c2ccccc12)NC(=O)[C@@H]1CCCN1C(=O)[C@H](CC(N)=O)NC(=O)[C@H](CCC(N)=O)NC(=O)[C@H](CC(=O)O)NC(=O)[C@H](CC(=O)O)NC(=O)[C@H](C)N)C(=O)N[C@@H](CC(=O)O)C(=O)N[C@@H](CC(C)C)C(=O)N[C@@H](CC(C)C)C(=O)N[C@@H](Cc1ccccc1)C(=O)N1CCC[C@H]1C(=O)N[C@H](C(=O)N[C@@H](CC(=O)O)C(=O)N[C@H](C(=O)N[C@@H](CC(C)C)C(=O)N[C@@H](CC(C)C)C(=O)N[C@@H](CC(C)C)C(=O)N[C@@H](CC(=O)O)C(=O)N[C@@H](CC(C)C)C(=O)N[C@@H](CC(C)C)C(=O)N[C@@H](Cc1c[nH]c2ccccc12)C(=O)N[C@@H](CSS[C@@H](C)COC(=O)N(C)Cc1ccc(-c2[nH]c3cc(F)cc4c3c2CCNC4=O)cc1)C(=O)NCC(=O)O)[C@@H](C)O)[C@@H](C)O` [Example 21], the IC50 turned out to be 2.2 nM. Turning to `CC(C)C[C@H](NC(=O)[C@H](Cc1ccc(O)cc1)NC(=O)[C@H](C)NC(=O)[C@H](CCCNC(=N)N)NC(=O)[C@H](Cc1c[nH]c2ccccc12)NC(=O)[C@@H]1CCCN1C(=O)[C@H](CC(N)=O)NC(=O)[C@H](CCC(N)=O)NC(=O)[C@H](CC(=O)O)NC(=O)[C@H](CC(=O)O)NC(=O)[C@H](C)N)C(=O)N[C@@H](CC(=O)O)C(=O)N[C@@H](CC(C)C)C(=O)N[C@@H](CC(C)C)C(=O)N[C@@H](Cc1ccccc1)C(=O)N1CCC[C@H]1C(=O)N[C@H](C(=O)N[C@@H](CC(=O)O)C(=O)N[C@H](C(=O)N[C@@H](CC(C)C)C(=O)N[C@@H](CC(C)C)C(=O)N[C@@H](CC(C)C)C(=O)N[C@@H](CC(=O)O)C(=O)N[C@@H](CC(C)C)C(=O)N[C@@H](CC(C)C)C(=O)N[C@@H](Cc1c[nH]c2ccccc12)C(=O)N[C@@H](CC(=O)O)C(=O)N[C@@H](C)C(=O)N[C@@H](CC(=O)O)C(=O)N[C@@H](CCC(=O)O)C(=O)N[C@@H](CSS[C@H](C)COC(=O)N1CCC[C@]1(C)c1nc2c(C(N)=O)cccc2[nH]1)C(=O)NCC(=O)O)[C@@H](C)O)[C@@H](C)O` [Example 51], the IC50 was determined as 0.9 nM. As for `CC[C@H](C)[C@H](NC(=O)[C@@H]1CCCN1C(=O)[C@H](CC(N)=O)NC(=O)[C@H](CCC(N)=O)NC(=O)[C@H](CCC(=O)O)NC(=O)[C@H](C)N)C(=O)N[C@@H](Cc1ccc(O)cc1)C(=O)N[C@@H](Cc1c[nH]c2ccccc12)C(=O)N[C@@H](C)C(=O)N[C@@H](CCCNC(=N)N)C(=O)N[C@@H](Cc1ccc(O)cc1)C(=O)N[C@@H](C)C(=O)N[C@@H](CC(=O)O)C(=O)N[C@@H](Cc1c[nH]c2ccccc12)C(=O)N[C@@H](CC(C)C)C(=O)N[C@@H](Cc1ccccc1)C(=O)N[C@H](C(=O)N[C@H](C(=O)N1CCC[C@H]1C(=O)N[C@@H](CC(C)C)C(=O)N[C@@H](CC(C)C)C(=O)N[C@@H](CC(C)C)C(=O)N[C@@H](CC(C)C)C(=O)N[C@@H](CC(=O)O)C(=O)N[C@@H](CC(C)C)C(=O)N[C@@H](C)C(=O)N[C@@H](CC(C)C)C(=O)N[C@@H](CC(C)C)C(=O)N[C@H](C(=O)N[C@@H](CC(=O)O)C(=O)N[C@@H](C)C(=O)N[C@@H](CC(=O)O)C(=O)N[C@@H](CCC(=O)O)C(=O)N[C@@H](CSS[C@@H](C)COC(=O)N(C)Cc1ccc(-c2[nH]c3cc(F)cc4c3c2CCNC4=O)cc1)C(=O)NCC(=O)O)C(C)C)[C@@H](C)O)[C@@H](C)O` [Example 22] (H-AEQNPIYWARYADWLFTTPLLLLDLALLVDADEC(X9)G-OH; N-terminus and C-terminus assumed), the figure is 1.8 nM; as for `CC[C@H](C)[C@H](NC(=O)[C@@H]1CCCN1C(=O)[C@H](CC(N)=O)NC(=O)[C@H](CCC(N)=O)NC(=O)[C@H](CCC(=O)O)NC(=O)[C@H](C)N)C(=O)N[C@@H](Cc1ccc(O)cc1)C(=O)N[C@@H](Cc1c[nH]c2ccccc12)C(=O)N[C@@H](C)C(=O)N[C@@H](CCCNC(=N)N)C(=O)N[C@@H](Cc1ccc(O)cc1)C(=O)N[C@@H](C)C(=O)N[C@@H](CC(=O)O)C(=O)N[C@@H](Cc1c[nH]c2ccccc12)C(=O)N[C@@H](CC(C)C)C(=O)N[C@@H](Cc1ccccc1)C(=O)N[C@H](C(=O)N[C@H](C(=O)N1CCC[C@H]1C(=O)N[C@@H](CC(C)C)C(=O)N[C@@H](CC(C)C)C(=O)N[C@@H](CC(C)C)C(=O)N[C@@H](CC(C)C)C(=O)N[C@@H](CC(=O)O)C(=O)N[C@@H](CC(C)C)C(=O)N[C@@H](C)C(=O)N[C@@H](CC(C)C)C(=O)N[C@@H](CC(C)C)C(=O)N[C@H](C(=O)N[C@@H](CC(=O)O)C(=O)N[C@@H](C)C(=O)N[C@@H](CC(=O)O)C(=O)N[C@@H](CCC(=O)O)C(=O)N[C@@H](CSSCCOC(=O)N(C)Cc1ccc(-c2[nH]c3cc(F)cc4c3c2CCNC4=O)cc1)C(=O)NCC(=O)O)C(C)C)[C@@H](C)O)[C@@H](C)O` [Example 15] (H-AEQNPIYWARYADWLFTTPLLLLDLALLVDADEC(X19)G-OH; N-terminus and C-terminus assumed), 6.47 nM. Regarding `CC(C)C[C@H](NC(=O)[C@H](Cc1ccc(O)cc1)NC(=O)[C@H](C)NC(=O)[C@H](CCCNC(=N)N)NC(=O)[C@H](Cc1c[nH]c2ccccc12)NC(=O)[C@@H]1CCCN1C(=O)[C@H](CC(N)=O)NC(=O)[C@H](CCC(N)=O)NC(=O)[C@H](CC(=O)O)NC(=O)[C@H](CC(=O)O)NC(=O)[C@H](C)N)C(=O)N[C@@H](CC(=O)O)C(=O)N[C@@H](CC(C)C)C(=O)N[C@@H](CC(C)C)C(=O)N[C@@H](Cc1ccccc1)C(=O)N1CCC[C@H]1C(=O)N[C@H](C(=O)N[C@@H](CC(=O)O)C(=O)N[C@H](C(=O)N[C@@H](CC(C)C)C(=O)N[C@@H](CC(C)C)C(=O)N[C@@H](CC(C)C)C(=O)N[C@@H](CC(=O)O)C(=O)N[C@@H](CC(C)C)C(=O)N[C@@H](CC(C)C)C(=O)N[C@@H](Cc1c[nH]c2ccccc12)C(=O)N[C@@H](CSS[C@H](C)COC(=O)N(C)Cc1ccc(-c2[nH]c3cc(F)cc4c3c2CCNC4=O)cc1)C(=O)NCC(=O)O)[C@@H](C)O)[C@@H](C)O` [Example 18], the IC50 is 1.1 nM. Turning to `CC(C)C[C@H](NC(=O)[C@H](Cc1ccc(O)cc1)NC(=O)[C@H](C)NC(=O)[C@H](CCCNC(=N)N)NC(=O)[C@H](Cc1c[nH]c2ccccc12)NC(=O)[C@@H]1CCCN1C(=O)[C@H](CC(N)=O)NC(=O)[C@H](CCC(N)=O)NC(=O)[C@H](CC(=O)O)NC(=O)[C@H](CC(=O)O)NC(=O)[C@H](C)N)C(=O)N[C@@H](CC(=O)O)C(=O)N[C@@H](CC(C)C)C(=O)N[C@@H](CC(C)C)C(=O)N[C@@H](Cc1ccccc1)C(=O)N1CCC[C@H]1C(=O)N[C@H](C(=O)N[C@@H](CC(=O)O)C(=O)N[C@H](C(=O)N[C@@H](CC(C)C)C(=O)N[C@@H](CC(C)C)C(=O)N[C@@H](CC(C)C)C(=O)N[C@@H](CC(=O)O)C(=O)N[C@@H](CC(C)C)C(=O)N[C@@H](CC(C)C)C(=O)N[C@@H](Cc1c[nH]c2ccccc12)C(=O)N[C@@H](CC(=O)O)C(=O)N[C@@H](C)C(=O)N[C@@H](CC(=O)O)C(=O)N[C@@H](CCC(=O)O)C(=O)N[C@@H](CSS[C@@H](C)COC(=O)N1CCC[C@]1(C)c1nc2c(C(N)=O)cccc2[nH]1)C(=O)NCC(=O)O)[C@@H](C)O)[C@@H](C)O` [Example 52], the IC50 came out at 1.1 nM.
